Results reported in patent US20260256792A1, “TREATMENT OF CHRONIC SPONTANEOUS URTICARIA BY ADMINISTERING (R)-2-[3-[4-AMINO-3-(2-FLUORO-4-PHENOXY-PHENYL)PYRAZOLO[3,4-D]PYRIMIDIN-1-YL]PIPERIDINE-1-CARBONYL]-4-METHYL-4-[4-(OXETAN-3-YL)PIPERAZIN-1-YL]PENT-2-ENENITRILE” (priority 2023, published 2026).

Test system: angioedema in CSU patients
Test: Phase 2 CSU study: angioedema activity score over 7 days (AAS7)
Assay type: in vivo, human
Design: AAS7, Median / AAS7 Change from baseline, Median: scale not given here
Conditions: Omalizumab-Naïve Population
From the text: The study comprises a 12 week, randomized, double-blind, placebo-controlled, multi-center, dose-ranging efficacy and safety phase, followed by a 40 week open label extension (OLE) phase (see FIG. 1). The study consists of three phases and an optional OLE phase. […] The weekly angioedema activity score (AAS7) was proposed as a tertiary endpoint. […] Patients were to complete the AAS using the e-diary. The e-diary was to be used once daily on the same time of each day recording of participant's answers to the angioedema activity score over 7 days (AAS7) questionnaire.

CC(C)(C=C(C#N)C(=O)N1CCC[C@@H](n2nc(-c3ccc(Oc4ccccc4)cc3F)c3c(N)ncnc32)C1)N1CCN(C2COC2)CC1 [rilzabrutinib, (R)-2-[3-[4-amino-3-(2-fluoro-4-phenoxy-phenyl)pyrazolo[3,4-d]pyrimidin-1-yl]piperidine-1-carbonyl]-4-methyl-4-[4-(oxetan-3-yl)piperazin-1-yl]pent-2-enenitrile]
AAS7, Median (400 mg BID, Week 10): 0.00
AAS7 Change from baseline, Mean (SD) (400 mg BID, Week 10): −29.84 (25.74)
AAS7 Change from baseline, Median (400 mg BID, Week 10): −24.00
AAS7 Percent change from baseline, Mean (SD) (400 mg BID, Week 10): −45.78 (130.13) %
AAS7 Percent change from baseline, Median (400 mg BID, Week 10): −100.00%
AAS7, Median (400 mg BID, Week 11): 0.00
AAS7 Change from baseline, Mean (SD) (400 mg BID, Week 11): −35.05 (24.68)
AAS7 Change from baseline, Median (400 mg BID, Week 11): −29.17
AAS7 Percent change from baseline, Mean (SD) (400 mg BID, Week 11): −73.13 (48.67) %
AAS7 Percent change from baseline, Median (400 mg BID, Week 11): −100.00%
AAS7, Median (400 mg BID, Week 12): 0.00
AAS7 Change from baseline, Mean (SD) (400 mg BID, Week 12): −35.73 (26.59)
AAS7 Change from baseline, Median (400 mg BID, Week 12): −37.00
AAS7 Percent change from baseline, Mean (SD) (400 mg BID, Week 12): −76.62 (36.34) %
AAS7 Percent change from baseline, Median (400 mg BID, Week 12): −100.00%
AAS7, Mean (SD) (400 mg QPM, End of Study): 17.46 (29.82)
AAS7, Median (400 mg QPM, End of Study): 4.00
AAS7 Change from baseline, Mean (SD) (400 mg QPM, End of Study): −4.04 (35.07)
AAS7 Change from baseline, Median (400 mg QPM, End of Study): −8.50
AAS7 Percent change from baseline, Mean (SD) (400 mg QPM, End of Study): −14.64 (160.23) %
AAS7 Percent change from baseline, Median (400 mg QPM, End of Study): −92.00%
AAS7, Median (400 mg QPM, Week 1): 39.00
AAS7 Change from baseline, Mean (SD) (400 mg QPM, Week 1): −18.63 (22.01)
AAS7 Change from baseline, Median (400 mg QPM, Week 1): −19.00
AAS7 Percent change from baseline, Mean (SD) (400 mg QPM, Week 1): −30.81 (44.93) %
AAS7 Percent change from baseline, Median (400 mg QPM, Week 1): −35.35%
AAS7, Median (400 mg QPM, Week 2): 31.50
AAS7 Change from baseline, Mean (SD) (400 mg QPM, Week 2): −20.23 (24.12)
AAS7 Change from baseline, Median (400 mg QPM, Week 2): −11.00
AAS7 Percent change from baseline, Mean (SD) (400 mg QPM, Week 2): −36.22 (43.96) %
AAS7 Percent change from baseline, Median (400 mg QPM, Week 2): −31.31%
AAS7, Median (400 mg QPM, Week 3): 34.00
AAS7 Change from baseline, Mean (SD) (400 mg QPM, Week 3): −20.88 (26.24)
AAS7 Change from baseline, Median (400 mg QPM, Week 3): −13.00
AAS7 Percent change from baseline, Mean (SD) (400 mg QPM, Week 3): −29.46 (63.83) %
AAS7 Percent change from baseline, Median (400 mg QPM, Week 3): −26.00%
AAS7, Median (400 mg QPM, Week 4): 35.00
AAS7 Change from baseline, Mean (SD) (400 mg QPM, Week 4): −23.93 (24.26)
AAS7 Change from baseline, Median (400 mg QPM, Week 4): −17.00
AAS7 Percent change from baseline, Mean (SD) (400 mg QPM, Week 4): −46.35 (39.61) %
AAS7 Percent change from baseline, Median (400 mg QPM, Week 4): −46.27%
AAS7, Median (400 mg QPM, Week 5): 23.50
AAS7 Change from baseline, Mean (SD) (400 mg QPM, Week 5): −29.64 (28.55)
AAS7 Change from baseline, Median (400 mg QPM, Week 5): −17.00
AAS7 Percent change from baseline, Mean (SD) (400 mg QPM, Week 5): −55.69 (41.16) %
AAS7 Percent change from baseline, Median (400 mg QPM, Week 5): −59.46%
AAS7, Median (400 mg QPM, Week 6): 24.38
AAS7 Change from baseline, Mean (SD) (400 mg QPM, Week 6): −28.36 (28.62)
AAS7 Change from baseline, Median (400 mg QPM, Week 6): −23.63
AAS7 Percent change from baseline, Mean (SD) (400 mg QPM, Week 6): −47.92 (45.31) %
AAS7 Percent change from baseline, Median (400 mg QPM, Week 6): −55.14%
AAS7, Median (400 mg QPM, Week 7): 30.00
AAS7 Change from baseline, Mean (SD) (400 mg QPM, Week 7): −26.95 (30.21)
AAS7 Change from baseline, Median (400 mg QPM, Week 7): −28.00
AAS7 Percent change from baseline, Mean (SD) (400 mg QPM, Week 7): −33.18 (69.78) %
AAS7 Percent change from baseline, Median (400 mg QPM, Week 7): −50.00%
AAS7, Median (400 mg QPM, Week 8): 18.00
AAS7 Change from baseline, Mean (SD) (400 mg QPM, Week 8): −29.80 (30.38)
AAS7 Change from baseline, Median (400 mg QPM, Week 8): −28.00
AAS7 Percent change from baseline, Mean (SD) (400 mg QPM, Week 8): −49.05 (70.23) %
AAS7 Percent change from baseline, Median (400 mg QPM, Week 8): −66.00%
AAS7, Median (400 mg QPM, Week 9): 26.30
AAS7 Change from baseline, Mean (SD) (400 mg QPM, Week 9): −28.66 (27.25)
AAS7 Change from baseline, Median (400 mg QPM, Week 9): −29.00
AAS7 Percent change from baseline, Mean (SD) (400 mg QPM, Week 9): −46.39 (66.49) %
AAS7 Percent change from baseline, Median (400 mg QPM, Week 9): −56.26%
AAS7, Median (400 mg QPM, Week 10): 28.00
AAS7 Change from baseline, Mean (SD) (400 mg QPM, Week 10): −28.93 (28.14)
AAS7 Change from baseline, Median (400 mg QPM, Week 10): −28.92
AAS7 Percent change from baseline, Mean (SD) (400 mg QPM, Week 10): −46.90 (68.16) %
AAS7 Percent change from baseline, Median (400 mg QPM, Week 10): −50.17%
AAS7, Median (400 mg QPM, Week 11): 30.10
AAS7 Change from baseline, Mean (SD) (400 mg QPM, Week 11): −29.18 (28.09)
AAS7 Change from baseline, Median (400 mg QPM, Week 11): −32.40
AAS7 Percent change from baseline, Mean (SD) (400 mg QPM, Week 11): −47.96 (69.01) %
AAS7 Percent change from baseline, Median (400 mg QPM, Week 11): −52.90%
AAS7, Median (400 mg QPM, Week 12): 26.83
AAS7 Change from baseline, Mean (SD) (400 mg QPM, Week 12): −29.03 (28.74)
AAS7 Change from baseline, Median (400 mg QPM, Week 12): −28.00
AAS7 Percent change from baseline, Mean (SD) (400 mg QPM, Week 12): −48.34 (71.54) %
AAS7 Percent change from baseline, Median (400 mg QPM, Week 12): −59.34%
AAS7, Mean (SD) (400 mg TID, End of Study): 26.75 (33.68)
AAS7, Median (400 mg TID, End of Study): 16.00
AAS7 Change from baseline, Mean (SD) (400 mg TID, End of Study): −21.25 (14.29)
AAS7 Change from baseline, Median (400 mg TID, End of Study): −27.00
AAS7 Percent change from baseline, Mean (SD) (400 mg TID, End of Study): −58.11 (43.26) %
AAS7 Percent change from baseline, Median (400 mg TID, End of Study): −66.21%
AAS7, Median (400 mg TID, Week 1): 9.00
AAS7 Change from baseline, Mean (SD) (400 mg TID, Week 1): −28.96 (27.34)
AAS7 Change from baseline, Median (400 mg TID, Week 1): −26.00
AAS7 Percent change from baseline, Mean (SD) (400 mg TID, Week 1): −56.39 (51.49) %
AAS7 Percent change from baseline, Median (400 mg TID, Week 1): −89.41%
AAS7, Median (400 mg TID, Week 2): 9.33
AAS7 Change from baseline, Mean (SD) (400 mg TID, Week 2): −30.89 (28.32)
AAS7 Change from baseline, Median (400 mg TID, Week 2): −27.00
AAS7 Percent change from baseline, Mean (SD) (400 mg TID, Week 2): −58.84 (53.09) %
AAS7 Percent change from baseline, Median (400 mg TID, Week 2): −81.97%
AAS7, Median (400 mg TID, Week 3): 0.00
AAS7 Change from baseline, Mean (SD) (400 mg TID, Week 3): −33.83 (29.99)
AAS7 Change from baseline, Median (400 mg TID, Week 3): −27.00
AAS7 Percent change from baseline, Mean (SD) (400 mg TID, Week 3): −69.93 (48.65) %
AAS7 Percent change from baseline, Median (400 mg TID, Week 3): −100.00%
AAS7, Median (400 mg TID, Week 4): 5.00
AAS7 Change from baseline, Mean (SD) (400 mg TID, Week 4): −36.18 (24.55)
AAS7 Change from baseline, Median (400 mg TID, Week 4): −27.00
AAS7 Percent change from baseline, Mean (SD) (400 mg TID, Week 4): −76.56 (30.09) %
AAS7 Percent change from baseline, Median (400 mg TID, Week 4): −93.33%
AAS7, Median (400 mg TID, Week 5): 6.00
AAS7 Change from baseline, Mean (SD) (400 mg TID, Week 5): −37.08 (26.17)
AAS7 Change from baseline, Median (400 mg TID, Week 5): −30.00
AAS7 Percent change from baseline, Mean (SD) (400 mg TID, Week 5): −73.55 (35.00) %
AAS7 Percent change from baseline, Median (400 mg TID, Week 5): −88.24%
AAS7, Median (400 mg TID, Week 6): 0.00
AAS7 Change from baseline, Mean (SD) (400 mg TID, Week 6): −32.35 (30.51)
AAS7 Change from baseline, Median (400 mg TID, Week 6): −27.00
AAS7 Percent change from baseline, Mean (SD) (400 mg TID, Week 6): −63.91 (58.28) %
AAS7 Percent change from baseline, Median (400 mg TID, Week 6): −100.00%
AAS7, Median (400 mg TID, Week 7): 2.50
AAS7 Change from baseline, Mean (SD) (400 mg TID, Week 7): −32.23 (26.57)
